Reference: the NIST ThermoML archive (doi:10.1016/j.jct.2013.08.002)

Experiment: relative permittivity at various frequencies (dimensionless)
Settings: 101 kPa, Liquid, Frequency=0.01 MHz, Coaxial cylinder capacitor

NCCNCCO [N-(2-aminoethyl)ethanolamine]
Settings | relative permittivity
293.2 K | 21.51
299.2 K | 19.87
304.2 K | 18.18
308.2 K | 17.09
314.2 K | 15.84
320.2 K | 14.64
323.2 K | 13.97
330.2 K | 12.89
333.2 K | 12.3
339.2 K | 11.37
343.2 K | 10.77
348.2 K | 10.19
